# Experiments:
# [1] = test system: Tyrosine-protein kinase ABL1 (Homo sapiens), P00519 [F317I]
# [2] = biological target: Atypical kinase COQ8A, mitochondrial (Homo sapiens) (UniProt Q8NI60)
# [3] = biological target: Atypical kinase COQ8B, mitochondrial (Homo sapiens) (UniProt Q96D53)
# [4] = biological target: BMP-2-inducible protein kinase (Homo sapiens) (UniProt Q9NSY1)
# [5] = test system: Serine/threonine-protein kinase B-raf (Homo sapiens), P15056 [V600E]
# [6] = biological target: Protein-tyrosine kinase 6 (Homo sapiens) (UniProt Q13882)
# [7] = biological target: Cyclin-dependent kinase 11B (Homo sapiens) (UniProt P21127)
# [8] = biological target: Cyclin-dependent kinase 2 (Homo sapiens) (UniProt P24941)
# [9] = biological target: Cyclin-dependent kinase 3 (Homo sapiens) (UniProt Q00526)
# [10] = biological target: Cyclin-dependent kinase 5 (Homo sapiens) (UniProt Q00535)
# [11] = biological target: Cyclin-dependent kinase 9 (Homo sapiens) (UniProt P50750)
# [12] = biological target: Casein kinase I isoform epsilon (Homo sapiens) (UniProt P49674)
# [13] = biological target: Death-associated protein kinase 1 (Homo sapiens) (UniProt P53355)
# [14] = biological target: Death-associated protein kinase 2 (Homo sapiens) (UniProt Q9UIK4)
# [15] = biological target: Epithelial discoidin domain-containing receptor 1 (Homo sapiens, UniProt Q08345)
# [16] = test system: Epidermal growth factor receptor (Homo sapiens), P00533 [UNDEFINED MUTATION]
# [17] = biological target: Mitogen-activated protein kinase 4 (Homo sapiens) (UniProt P31152)
# [18] = biological target: Insulin-like growth factor 1 receptor (Homo sapiens) (UniProt P08069)
# [19] = test system: Mast/stem cell growth factor receptor Kit (Homo sapiens), P10721 [D816H]
# [20] = test system: Mast/stem cell growth factor receptor Kit (Homo sapiens), P10721 [V559D]
# [21] = biological target: Mitogen-activated protein kinase kinase kinase kinase 3 (Homo sapiens) (UniProt Q8IVH8)
# [22] = biological target: Mitogen-activated protein kinase kinase kinase kinase 4 (Homo sapiens) (UniProt O95819)
# [23] = biological target: Mitogen-activated protein kinase kinase kinase 9 (Homo sapiens) (UniProt P80192)
# [24] = biological target: Serine/threonine-protein kinase MRCK alpha (Homo sapiens) (UniProt Q5VT25)
# [25] = biological target: Macrophage-stimulating protein receptor (Homo sapiens) (UniProt Q04912)
# [26] = biological target: Serine/threonine-protein kinase Nek2 (Homo sapiens) (UniProt P51955)
# [27] = biological target: Serine/threonine-protein kinase Nek3 (Homo sapiens) (UniProt P51956)
# [28] = biological target: Serine/threonine-protein kinase Nek4 (Homo sapiens) (UniProt P51957)
# [29] = biological target: Serine/threonine-protein kinase PAK 1 (Homo sapiens) (UniProt Q13153)
# [30] = biological target: Serine/threonine-protein kinase PAK 3 (Homo sapiens) (UniProt O75914)
# [31] = biological target: Cyclin-dependent kinase 16 (Homo sapiens) (UniProt Q00536)
# [32] = biological target: Platelet-derived growth factor receptor alpha (Homo sapiens) (UniProt P16234)
# [33] = biological target: cAMP-dependent protein kinase catalytic subunit beta (Homo sapiens) (UniProt P22694)
# [34] = biological target: Serine/threonine-protein kinase N1 (Homo sapiens) (UniProt Q16512)
# [35] = biological target: Receptor-interacting serine/threonine-protein kinase 1 (Homo sapiens) (UniProt Q13546)
# [36] = biological target: Ribosomal protein S6 kinase alpha-4 (Homo sapiens) (UniProt O75676)
# [37] = biological target: Ribosomal protein S6 kinase alpha-5 (Homo sapiens) (UniProt O75582)
# [38] = biological target: Ribosomal protein S6 kinase alpha-1 (Homo sapiens) (UniProt Q15418)
# [39] = biological target: Ribosomal protein S6 kinase alpha-2 (Homo sapiens) (UniProt Q15349)
# [40] = biological target: Tyrosine-protein kinase SYK (Homo sapiens) (UniProt P43405)
# [41] = biological target: Serine/threonine-protein kinase TAO3 (Homo sapiens) (UniProt Q9H2K8)
# [42] = biological target: Testis-specific serine/threonine-protein kinase 1 (Homo sapiens) (UniProt Q9BXA7)
# [43] = biological target: Serine/threonine-protein kinase ULK3 (Homo sapiens) (UniProt Q6PHR2)
# [44] = biological target: Serine/threonine-protein kinase VRK2 (Homo sapiens) (UniProt Q86Y07)
# [45] = biological target: Sigma intracellular receptor 2 (Homo sapiens, UniProt Q5BJF2); conditions: Compound concentration 10.0 uM
# [46] = Compound concentration 1000.0 nM
# [47] = Compound concentration 100.0 nM
# Casein kinase I isoform epsilon (Homo sapiens), sequence (P49674 whole entry, looked up, canonical isoform): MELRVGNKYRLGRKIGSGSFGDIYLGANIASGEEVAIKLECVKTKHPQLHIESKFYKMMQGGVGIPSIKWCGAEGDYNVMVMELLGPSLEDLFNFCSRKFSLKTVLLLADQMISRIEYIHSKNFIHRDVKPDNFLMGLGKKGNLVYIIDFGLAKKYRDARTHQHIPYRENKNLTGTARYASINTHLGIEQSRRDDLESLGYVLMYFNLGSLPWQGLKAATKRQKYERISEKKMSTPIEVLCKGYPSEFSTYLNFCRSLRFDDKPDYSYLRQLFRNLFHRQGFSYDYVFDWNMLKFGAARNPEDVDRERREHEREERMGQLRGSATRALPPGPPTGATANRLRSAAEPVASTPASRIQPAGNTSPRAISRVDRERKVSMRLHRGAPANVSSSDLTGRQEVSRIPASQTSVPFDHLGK
# Serine/threonine-protein kinase PAK 3 (Homo sapiens), sequence (O75914 whole entry, looked up): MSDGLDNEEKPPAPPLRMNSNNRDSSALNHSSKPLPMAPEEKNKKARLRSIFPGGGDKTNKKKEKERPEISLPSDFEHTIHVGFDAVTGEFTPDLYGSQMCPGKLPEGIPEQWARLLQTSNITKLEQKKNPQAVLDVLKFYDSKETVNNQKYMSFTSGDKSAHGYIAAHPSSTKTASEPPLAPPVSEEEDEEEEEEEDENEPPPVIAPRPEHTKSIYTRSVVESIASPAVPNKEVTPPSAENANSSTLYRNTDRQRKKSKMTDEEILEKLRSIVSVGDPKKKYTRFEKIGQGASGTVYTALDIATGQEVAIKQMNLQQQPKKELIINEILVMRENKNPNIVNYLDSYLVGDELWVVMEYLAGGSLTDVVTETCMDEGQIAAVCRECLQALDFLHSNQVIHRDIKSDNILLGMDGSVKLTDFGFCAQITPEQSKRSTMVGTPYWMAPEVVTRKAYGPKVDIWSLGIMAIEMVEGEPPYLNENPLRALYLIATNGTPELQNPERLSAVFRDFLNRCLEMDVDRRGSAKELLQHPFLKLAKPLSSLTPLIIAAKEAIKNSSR
# Serine/threonine-protein kinase Nek4 (Homo sapiens), sequence (P51957 whole entry, looked up): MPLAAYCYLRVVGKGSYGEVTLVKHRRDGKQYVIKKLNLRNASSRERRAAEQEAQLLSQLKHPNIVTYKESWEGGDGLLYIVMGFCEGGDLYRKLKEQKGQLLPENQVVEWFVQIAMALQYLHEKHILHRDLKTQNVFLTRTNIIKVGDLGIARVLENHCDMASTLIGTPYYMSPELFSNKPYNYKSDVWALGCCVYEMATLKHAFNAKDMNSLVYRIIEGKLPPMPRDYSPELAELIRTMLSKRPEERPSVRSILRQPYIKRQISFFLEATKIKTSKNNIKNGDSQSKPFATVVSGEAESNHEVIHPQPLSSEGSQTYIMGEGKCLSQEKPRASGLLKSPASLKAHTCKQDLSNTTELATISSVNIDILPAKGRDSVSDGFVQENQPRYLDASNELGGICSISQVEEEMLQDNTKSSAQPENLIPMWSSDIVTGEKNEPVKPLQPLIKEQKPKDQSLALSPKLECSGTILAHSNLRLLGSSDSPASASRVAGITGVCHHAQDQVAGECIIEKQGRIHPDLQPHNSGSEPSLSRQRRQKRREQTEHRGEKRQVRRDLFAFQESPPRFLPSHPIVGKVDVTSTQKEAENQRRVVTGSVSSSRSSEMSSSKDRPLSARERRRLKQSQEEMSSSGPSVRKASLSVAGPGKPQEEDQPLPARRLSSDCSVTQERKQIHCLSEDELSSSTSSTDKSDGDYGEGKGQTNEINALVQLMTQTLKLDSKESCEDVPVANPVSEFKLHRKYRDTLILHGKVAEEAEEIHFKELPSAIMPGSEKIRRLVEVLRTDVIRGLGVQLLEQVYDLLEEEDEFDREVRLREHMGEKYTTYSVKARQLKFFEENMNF
# Ribosomal protein S6 kinase alpha-2 (Homo sapiens), sequence (Q15349 whole entry): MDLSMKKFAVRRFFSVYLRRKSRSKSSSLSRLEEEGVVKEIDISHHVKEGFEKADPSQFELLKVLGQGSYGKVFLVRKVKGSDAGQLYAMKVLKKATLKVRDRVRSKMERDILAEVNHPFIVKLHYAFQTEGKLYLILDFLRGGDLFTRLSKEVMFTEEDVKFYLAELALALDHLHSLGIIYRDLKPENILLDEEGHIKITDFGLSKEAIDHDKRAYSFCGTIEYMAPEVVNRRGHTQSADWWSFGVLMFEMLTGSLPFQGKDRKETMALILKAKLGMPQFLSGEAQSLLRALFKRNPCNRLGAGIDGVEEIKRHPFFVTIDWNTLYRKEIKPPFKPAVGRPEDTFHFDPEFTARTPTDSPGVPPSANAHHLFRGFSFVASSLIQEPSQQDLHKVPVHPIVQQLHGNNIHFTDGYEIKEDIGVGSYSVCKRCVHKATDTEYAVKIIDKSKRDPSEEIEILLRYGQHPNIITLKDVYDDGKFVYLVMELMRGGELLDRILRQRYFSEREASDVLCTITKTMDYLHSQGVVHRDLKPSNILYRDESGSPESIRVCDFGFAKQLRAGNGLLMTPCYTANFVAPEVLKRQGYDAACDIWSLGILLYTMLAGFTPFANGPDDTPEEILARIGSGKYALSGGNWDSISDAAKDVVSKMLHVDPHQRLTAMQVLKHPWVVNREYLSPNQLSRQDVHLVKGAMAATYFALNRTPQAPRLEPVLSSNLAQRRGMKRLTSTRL
# Mitogen-activated protein kinase kinase kinase 9 (Homo sapiens), sequence (P80192 whole entry, looked up): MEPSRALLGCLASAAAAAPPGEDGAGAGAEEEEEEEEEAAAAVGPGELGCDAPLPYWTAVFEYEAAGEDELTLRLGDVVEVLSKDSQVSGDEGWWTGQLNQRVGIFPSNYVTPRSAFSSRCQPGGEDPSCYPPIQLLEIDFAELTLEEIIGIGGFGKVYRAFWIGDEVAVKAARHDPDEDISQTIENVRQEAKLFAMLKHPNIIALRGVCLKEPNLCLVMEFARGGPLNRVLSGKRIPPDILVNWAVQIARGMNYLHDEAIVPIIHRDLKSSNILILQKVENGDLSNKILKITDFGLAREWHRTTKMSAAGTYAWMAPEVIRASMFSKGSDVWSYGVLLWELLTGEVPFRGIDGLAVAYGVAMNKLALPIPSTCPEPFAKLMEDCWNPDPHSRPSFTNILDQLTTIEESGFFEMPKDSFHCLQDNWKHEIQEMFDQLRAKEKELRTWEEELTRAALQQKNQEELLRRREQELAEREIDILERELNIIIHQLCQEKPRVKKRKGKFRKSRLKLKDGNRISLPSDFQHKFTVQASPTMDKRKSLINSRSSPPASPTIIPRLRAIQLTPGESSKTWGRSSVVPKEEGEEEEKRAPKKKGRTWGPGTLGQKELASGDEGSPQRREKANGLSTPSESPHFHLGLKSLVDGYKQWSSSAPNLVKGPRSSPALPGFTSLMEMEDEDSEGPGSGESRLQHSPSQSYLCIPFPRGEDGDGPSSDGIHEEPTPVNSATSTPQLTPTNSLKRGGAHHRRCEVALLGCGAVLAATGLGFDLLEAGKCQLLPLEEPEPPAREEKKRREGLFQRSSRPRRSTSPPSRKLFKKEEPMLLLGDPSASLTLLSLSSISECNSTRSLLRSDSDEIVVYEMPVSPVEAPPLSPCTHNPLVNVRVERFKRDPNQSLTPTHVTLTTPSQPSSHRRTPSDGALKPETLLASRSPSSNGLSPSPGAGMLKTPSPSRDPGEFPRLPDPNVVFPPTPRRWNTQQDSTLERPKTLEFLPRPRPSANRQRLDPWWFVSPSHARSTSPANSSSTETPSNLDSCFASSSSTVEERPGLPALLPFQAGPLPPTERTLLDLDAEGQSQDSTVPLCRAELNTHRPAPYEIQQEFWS
# Cyclin-dependent kinase 3 (Homo sapiens), sequence (Q00526 whole entry, looked up): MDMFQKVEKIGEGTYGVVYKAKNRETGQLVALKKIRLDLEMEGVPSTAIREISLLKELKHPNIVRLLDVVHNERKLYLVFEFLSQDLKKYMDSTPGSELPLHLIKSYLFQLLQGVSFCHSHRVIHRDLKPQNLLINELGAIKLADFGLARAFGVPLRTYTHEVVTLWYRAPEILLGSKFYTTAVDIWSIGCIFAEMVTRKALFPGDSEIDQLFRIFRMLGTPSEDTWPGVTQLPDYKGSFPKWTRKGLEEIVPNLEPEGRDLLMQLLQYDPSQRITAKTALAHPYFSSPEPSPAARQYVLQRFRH
# Mitogen-activated protein kinase 4 (Homo sapiens), sequence (P31152 whole entry): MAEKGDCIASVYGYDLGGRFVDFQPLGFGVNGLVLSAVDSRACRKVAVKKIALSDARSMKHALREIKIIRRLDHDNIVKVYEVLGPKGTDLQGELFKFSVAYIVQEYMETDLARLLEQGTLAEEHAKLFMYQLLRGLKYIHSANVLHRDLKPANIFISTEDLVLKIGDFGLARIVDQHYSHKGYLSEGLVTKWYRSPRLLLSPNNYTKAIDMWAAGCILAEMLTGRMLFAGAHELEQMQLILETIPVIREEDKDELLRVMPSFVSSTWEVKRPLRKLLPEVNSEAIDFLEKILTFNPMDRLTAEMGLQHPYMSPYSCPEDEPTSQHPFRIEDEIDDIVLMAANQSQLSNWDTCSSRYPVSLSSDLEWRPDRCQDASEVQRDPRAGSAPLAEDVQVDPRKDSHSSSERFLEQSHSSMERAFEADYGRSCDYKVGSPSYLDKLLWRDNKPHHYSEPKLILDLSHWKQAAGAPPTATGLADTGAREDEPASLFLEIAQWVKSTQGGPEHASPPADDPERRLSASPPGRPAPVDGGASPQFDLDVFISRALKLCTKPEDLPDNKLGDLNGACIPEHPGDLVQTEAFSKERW
# Serine/threonine-protein kinase Nek2 (Homo sapiens), sequence (P51955 whole entry): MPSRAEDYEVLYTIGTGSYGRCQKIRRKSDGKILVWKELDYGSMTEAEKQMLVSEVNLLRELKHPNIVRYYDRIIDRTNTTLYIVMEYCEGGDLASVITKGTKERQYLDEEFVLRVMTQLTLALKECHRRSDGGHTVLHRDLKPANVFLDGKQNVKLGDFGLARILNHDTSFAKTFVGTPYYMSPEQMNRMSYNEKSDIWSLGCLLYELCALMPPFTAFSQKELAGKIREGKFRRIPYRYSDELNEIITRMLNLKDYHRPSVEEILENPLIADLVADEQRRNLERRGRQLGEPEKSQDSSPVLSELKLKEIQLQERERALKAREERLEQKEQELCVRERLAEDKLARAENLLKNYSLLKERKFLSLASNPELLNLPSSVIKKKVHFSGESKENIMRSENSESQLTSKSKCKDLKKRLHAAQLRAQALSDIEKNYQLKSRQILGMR
smiles,measurement,setting,value
Cc1cc(NC(=O)c2cccc(S(F)(F)(F)(F)F)c2)cc(-n2ccn3nc(-c4cccnc4)cc23)c1 [BAY-309],residual activity,[1]; [46],100%
same,residual activity,[2]; [46],82.8%
same,residual activity,[3]; [46],100%
same,residual activity,[4]; [46],65.9%
same,residual activity,[5]; [46],24.4%
same,residual activity,[6]; [46],100%
same,residual activity,[7]; [46],100%
same,residual activity,[8]; [46],100%
same,residual activity,[9]; [46],100%
same,residual activity,[10]; [46],100%
same,residual activity,[11]; [46],100%
same,residual activity,[12]; [46],75.7%
same,residual activity,[13]; [46],100%
same,residual activity,[14]; [46],100%
same,residual activity,[15]; [46],0%
same,residual activity,[16]; [46],100%
same,residual activity,[17]; [46],50.4%
same,residual activity,[18]; [46],100%
same,residual activity,[19]; [46],73.1%
same,residual activity,[20]; [46],73.5%
same,residual activity,[21]; [46],100%
same,residual activity,[22]; [46],100%
same,residual activity,[23]; [46],77.7%
same,residual activity,[24]; [46],88.5%
same,residual activity,[25]; [46],71%
same,residual activity,[26]; [46],90.8%
same,residual activity,[27]; [46],50.5%
same,residual activity,[28]; [46],92.9%
same,residual activity,[29]; [46],90.9%
same,residual activity,[30]; [46],100%
same,residual activity,[31]; [46],100%
same,residual activity,[32]; [46],100%
same,residual activity,[33]; [46],100%
same,residual activity,[34]; [46],100%
same,residual activity,[35]; [46],80.7%
same,residual activity,[36]; [46],100%
same,residual activity,[37]; [46],100%
same,residual activity,[38]; [46],100%
same,residual activity,[39]; [46],100%
same,residual activity,[40]; [46],95.5%
same,residual activity,[41]; [46],100%
same,residual activity,[42]; [46],100%
same,residual activity,[43]; [46],75.2%
same,residual activity,[44]; [46],100%
same,inhibition,[45],68.7%
Cc1cc(C)c(-n2ccn3nc(-c4cccnc4)cc23)cc1NC(=O)c1cc(C#N)cc(S(F)(F)(F)(F)F)c1 [BAY-826],residual activity,[1]; [47],65.8%
same,residual activity,[2]; [47],94.5%
same,residual activity,[3]; [47],93.2%
same,residual activity,[4]; [47],94.7%
same,residual activity,[5]; [47],100%
same,residual activity,[6]; [47],99.5%
same,residual activity,[7]; [47],93.2%
same,residual activity,[8]; [47],99%
same,residual activity,[9]; [47],92.4%
same,residual activity,[10]; [47],95.6%
same,residual activity,[11]; [47],85.5%
same,residual activity,[12]; [47],98.7%
same,residual activity,[13]; [47],94.1%
same,residual activity,[14]; [47],75.8%
same,residual activity,[15]; [47],0.1%
same,residual activity,[16]; [47],88.5%
same,residual activity,[17]; [47],86.3%
same,residual activity,[18]; [47],84.7%
same,residual activity,[19]; [47],81.8%
same,residual activity,[20]; [47],45.6%
same,residual activity,[21]; [47],89.6%
same,residual activity,[22]; [47],95.1%
same,residual activity,[23]; [47],79.5%
same,residual activity,[24]; [47],100%
same,residual activity,[25]; [47],75.6%
same,residual activity,[26]; [47],98.6%
same,residual activity,[27]; [47],70.7%
same,residual activity,[28]; [47],90.2%
same,residual activity,[29]; [47],82.2%
same,residual activity,[30]; [47],26.1%
same,residual activity,[31]; [47],92.5%
same,residual activity,[32]; [47],67.4%
same,residual activity,[33]; [47],100%
same,residual activity,[34]; [47],96.7%
same,residual activity,[35]; [47],91.5%
same,residual activity,[36]; [47],79.3%
same,residual activity,[37]; [47],83.2%
same,residual activity,[38]; [47],100%
same,residual activity,[39]; [47],65.1%
same,residual activity,[40]; [47],100%
same,residual activity,[41]; [47],47.1%
same,residual activity,[42]; [47],100%
same,residual activity,[43]; [47],100%
same,residual activity,[44]; [47],79.8%
same,inhibition,[45],64.4%

# From ChEMBL document CHEMBL4507270 (2021)
